Our source for the Ki values is ChEMBL document CHEMBL1138903, “Secondary amides of sulfonylated 3-amidinophenylalanine. New potent and selective inhibitors of matriptase” (J Med Chem, 2006).

In assay [1] the target is T1, Suppressor of tumorigenicity 14 protein (Homo sapiens, UniProt Q9Y5Y6).
T1 sequence (Q9Y5Y6 whole entry): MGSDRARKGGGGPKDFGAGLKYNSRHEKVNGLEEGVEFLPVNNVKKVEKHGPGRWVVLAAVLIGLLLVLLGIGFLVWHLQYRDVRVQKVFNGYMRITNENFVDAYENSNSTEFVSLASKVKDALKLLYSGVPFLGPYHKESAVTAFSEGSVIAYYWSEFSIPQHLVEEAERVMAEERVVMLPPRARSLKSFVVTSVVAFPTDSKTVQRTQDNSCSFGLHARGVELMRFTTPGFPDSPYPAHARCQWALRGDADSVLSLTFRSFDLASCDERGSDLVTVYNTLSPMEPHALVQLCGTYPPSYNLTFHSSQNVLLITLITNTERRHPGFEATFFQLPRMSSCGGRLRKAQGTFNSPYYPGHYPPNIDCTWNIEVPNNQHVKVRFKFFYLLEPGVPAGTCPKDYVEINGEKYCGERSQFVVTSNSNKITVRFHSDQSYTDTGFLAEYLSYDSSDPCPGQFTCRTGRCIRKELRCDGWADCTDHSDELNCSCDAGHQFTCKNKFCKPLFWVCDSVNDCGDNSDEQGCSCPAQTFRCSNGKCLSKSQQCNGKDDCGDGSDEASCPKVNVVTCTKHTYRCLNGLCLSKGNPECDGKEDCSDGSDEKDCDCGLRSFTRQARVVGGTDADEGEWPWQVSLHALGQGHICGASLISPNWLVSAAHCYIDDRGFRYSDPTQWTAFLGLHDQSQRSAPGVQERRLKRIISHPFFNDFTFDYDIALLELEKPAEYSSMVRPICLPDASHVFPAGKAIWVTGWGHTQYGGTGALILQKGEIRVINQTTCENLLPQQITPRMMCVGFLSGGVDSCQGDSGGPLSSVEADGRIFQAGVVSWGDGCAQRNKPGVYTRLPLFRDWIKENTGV

In the next assay the target is Plasminogen (Homo sapiens, UniProt P00747). The assay can be described thus: Inhibition of plasmin.
The next assay deals with Coagulation factor X (Homo sapiens, UniProt P00742). The assay can be described thus: Inhibition of f10a.
For assay [2], the target named is Urokinase-type plasminogen activator (Homo sapiens, UniProt P00749). The experiment in a line: Inhibition of uPA.
Another assay concerns the target Prothrombin (Homo sapiens, UniProt P00734). The assay can be described thus: Inhibition of thrombin.

Structures are written as SMILES.

Coagulation factor X, sequence (P00742 41-179 limits assumed): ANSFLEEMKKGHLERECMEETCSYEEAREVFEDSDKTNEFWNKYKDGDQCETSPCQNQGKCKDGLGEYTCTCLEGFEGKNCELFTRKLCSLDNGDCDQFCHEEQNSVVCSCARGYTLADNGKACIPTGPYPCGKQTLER
Coagulation factor X, sequence (P00742 235-488 limits assumed): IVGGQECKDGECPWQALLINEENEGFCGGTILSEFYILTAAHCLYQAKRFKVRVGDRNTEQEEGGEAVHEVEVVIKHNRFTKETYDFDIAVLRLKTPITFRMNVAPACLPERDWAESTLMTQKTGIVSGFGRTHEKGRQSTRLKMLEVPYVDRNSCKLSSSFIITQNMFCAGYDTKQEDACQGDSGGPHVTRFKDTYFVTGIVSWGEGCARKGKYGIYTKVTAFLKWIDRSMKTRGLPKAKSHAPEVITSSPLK
Plasminogen, sequence (P00747 97-580 limits assumed): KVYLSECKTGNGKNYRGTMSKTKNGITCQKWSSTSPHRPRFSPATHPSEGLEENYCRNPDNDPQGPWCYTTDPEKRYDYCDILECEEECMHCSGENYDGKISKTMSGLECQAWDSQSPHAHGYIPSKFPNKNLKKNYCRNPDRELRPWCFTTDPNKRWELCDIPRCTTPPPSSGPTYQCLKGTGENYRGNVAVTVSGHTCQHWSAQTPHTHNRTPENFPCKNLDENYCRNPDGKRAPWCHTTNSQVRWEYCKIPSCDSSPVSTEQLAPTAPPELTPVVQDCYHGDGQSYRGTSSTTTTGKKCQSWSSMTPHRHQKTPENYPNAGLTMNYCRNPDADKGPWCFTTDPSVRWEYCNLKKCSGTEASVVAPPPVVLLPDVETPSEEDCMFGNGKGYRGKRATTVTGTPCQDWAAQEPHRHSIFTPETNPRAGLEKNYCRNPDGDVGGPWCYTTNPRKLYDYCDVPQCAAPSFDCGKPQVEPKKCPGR
Plasminogen, sequence (P00747 581-810 limits assumed): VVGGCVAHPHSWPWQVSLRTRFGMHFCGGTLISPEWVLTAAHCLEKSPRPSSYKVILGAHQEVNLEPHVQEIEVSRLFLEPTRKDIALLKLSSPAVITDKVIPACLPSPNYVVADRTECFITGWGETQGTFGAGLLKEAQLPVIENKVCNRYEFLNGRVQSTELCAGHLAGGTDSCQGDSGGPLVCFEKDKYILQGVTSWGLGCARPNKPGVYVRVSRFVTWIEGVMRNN

On to `N=C(N)NCCC(=O)Nc1cccc(S(=O)(=O)N[C@@H](Cc2cccc(C(=N)N)c2)C(=O)N2CCC(CCNC(=N)N)CC2)c1`, for which the Ki in assay [1] amounted to 0.0042 µM; on Plasminogen, 1.8 µM; at Coagulation factor X, 2 µM; in assay [2], 1.2 µM; at Prothrombin it was 4 µM.

Turning to `CC(C)c1cc(C(C)C)c(S(=O)(=O)N[C@@H](Cc2cccc(C(=N)N)c2)C(=O)N2CCN(C(=O)C3CCNCC3)CC2)c(C(C)C)c1`, the Ki at Plasminogen is 1.3 µM; at Coagulation factor X, 17 µM; in assay [2] it was 1.2 µM; on Prothrombin, 5.4 µM.

Consider `CC(C)c1cc(C(C)C)c(S(=O)(=O)N[C@@H](Cc2cccc(C(=N)N)c2)C(=O)N2CCN(C(=O)CCN)CC2)c(C(C)C)c1`, for which the Ki was 0.44 µM at Plasminogen, 15 µM at Coagulation factor X and 3.3 µM on Prothrombin.

`N=C(N)c1cccc(C[C@H](NS(=O)(=O)c2ccc3c(c2)C(=O)c2ccccc2C3=O)C(=O)N2CCC(C(=O)NCCN)CC2)c1`: the Ki in assay [1] was 0.021 µM; on Plasminogen, 3.1 µM; on Coagulation factor X it was 4 µM; in assay [2], 7.7 µM; on Prothrombin, 0.42 µM.

As to `CC(C)c1cc(C(C)C)c(S(=O)(=O)N[C@@H](Cc2cccc(C(=N)N)c2)C(=O)N2CCCN(C(=O)CCN)CC2)c(C(C)C)c1`, the Ki came to 0.36 µM on Plasminogen, 5.3 µM at Coagulation factor X, 1.2 µM in assay [2] and 0.49 µM at Prothrombin.

`CC(C)c1cc(C(C)C)c(S(=O)(=O)NC(Cc2cccc(C(=N)N)c2)C(=O)N2CCN(C(=O)CN=C(N)N)CC2)c(C(C)C)c1` (racemic): the Ki turned out to be 0.33 µM in assay [1]; 0.82 µM on Plasminogen; 9 µM at Coagulation factor X; 1.5 µM in assay [2]; 1.2 µM at Prothrombin.

On to `CC(C)c1cc(C(C)C)c(S(=O)(=O)N[C@@H](Cc2cccc(C(=N)N)c2)C(=O)N2CCN(C(=O)C3CCN(C(=N)N)CC3)CC2)c(C(C)C)c1`, for which the Ki on Plasminogen worked out at 0.6 µM; on Coagulation factor X, 10 µM; in assay [2], 1.1 µM; on Prothrombin, 5 µM.

As for `N=C(N)c1cccc(C[C@H](NS(=O)(=O)c2ccc(Cc3ccncc3)cc2)C(=O)N2CCC(CCN=C(N)N)CC2)c1`, the inhibition constant (Ki) in assay [1] was determined as 0.053 µM; at Plasminogen, 0.84 µM; at Coagulation factor X, 2.3 µM; in assay [2], 3.6 µM; on Prothrombin, 0.27 µM.

As for `N=C(N)NCCC(=O)N1CCN(C(=O)[C@H](Cc2cccc(C(=N)N)c2)NS(=O)(=O)c2cccc3ccccc23)CC1`, the inhibitory constant (Ki) came to 0.34 µM in assay [1]; 3.7 µM on Plasminogen; 5.1 µM at Coagulation factor X; 19 µM in assay [2]; 2.5 µM at Prothrombin.

Consider `N=C(N)c1cccc(C[C@H](NS(=O)(=O)c2cccc(NC(=O)CN)c2)C(=O)N2CCC(CCN)CC2)c1`, for which the Ki on Plasminogen is 4.5 µM; on Coagulation factor X, 35 µM; in assay [2], 11 µM; at Prothrombin it was 7 µM.

As for `N=C(N)c1cccc(C[C@H](NS(=O)(=O)c2ccc3ccccc3c2)C(=O)N2CCC(CCCN)CC2)c1`, the inhibitory constant (Ki) worked out at 0.16 µM in assay [1]; 0.73 µM on Plasminogen; 66 µM on Coagulation factor X; 2.1 µM in assay [2]; 0.6 µM at Prothrombin.

On to `CC(C)c1cc(C(C)C)c(S(=O)(=O)N[C@@H](Cc2cccc(C(=N)N)c2)C(=O)N2CCC(CCN=C(N)N)CC2)c(C(C)C)c1`, for which the Ki in assay [1] was 0.089 µM; at Plasminogen, 1 µM; at Coagulation factor X, 3.2 µM; in assay [2] it was 0.32 µM; on Prothrombin, 0.3 µM.

Regarding `CC(C)c1cc(C(C)C)c(S(=O)(=O)N[C@@H](Cc2cccc(C(=N)N)c2)C(=O)N2CCNCC2)c(C(C)C)c1`, the Ki in assay [1] came to 0.1 µM; at Plasminogen it was 0.8 µM; at Coagulation factor X it was 4.6 µM; in assay [2] it was 0.87 µM; on Prothrombin, 1.3 µM.

Turning to `CC(C)c1cc(C(C)C)c(S(=O)(=O)N[C@@H](Cc2cccc(C(=N)N)c2)C(=O)N2CCN(C(=N)N)CC2)c(C(C)C)c1`, the Ki at Plasminogen was 1.8 µM; at Coagulation factor X it was 3.7 µM; in assay [2], 1.6 µM; on Prothrombin, 13 µM.

Turning to `N=C(N)NCCC(=O)N1CCN(C(=O)[C@H](Cc2cccc(C(=N)N)c2)NS(=O)(=O)c2ccc3ccccc3c2)CC1`, the Ki came to 0.21 µM in assay [1]; 2.8 µM at Plasminogen; 56 µM at Coagulation factor X; 6.9 µM in assay [2]; 1.4 µM at Prothrombin.

In the case of `CC(C)c1cc(C(C)C)c(S(=O)(=O)N[C@@H](Cc2cccc(C(=N)N)c2)C(=O)N2CCN(C(=O)CCCN)CC2)c(C(C)C)c1`, the Ki was determined as 0.14 µM in assay [1]; 0.64 µM on Plasminogen; 13 µM at Coagulation factor X; 1.1 µM in assay [2]; 9.4 µM on Prothrombin.

With `N=C(N)NCCCC1CCN(C(=O)[C@H](Cc2cccc(C(=N)N)c2)NS(=O)(=O)c2ccc3ccccc3c2)CC1`, the inhibitory constant (Ki) in assay [1] is 0.042 µM; on Plasminogen, 1.2 µM; at Coagulation factor X, 34 µM; in assay [2] it was 2.1 µM; on Prothrombin it was 0.17 µM.

The molecule `Cc1ccc(S(=O)(=O)NC(Cc2cccc(C(=N)N)c2)C(=O)N2CCCCC2)cc1` (configuration not stated) had an inhibition constant (Ki) in assay [1] of 14 µM.

In the case of `CC(C)c1cc(C(C)C)c(S(=O)(=O)N[C@@H](Cc2cccc(C(=N)N)c2)C(=O)N2CCN(C(=O)CCCN=C(N)N)CC2)c(C(C)C)c1`, the Ki is 0.061 µM in assay [1]; 0.88 µM at Plasminogen; 2.8 µM on Coagulation factor X; 0.26 µM in assay [2]; 4.2 µM at Prothrombin.

As to `CCOC(=O)N1CCN(C(=O)[C@H](Cc2cccc(C(=N)N)c2)NS(=O)(=O)c2c(C(C)C)cc(C(C)C)cc2C(C)C)CC1`, affinity at Coagulation factor X was put at a Ki of 1.7 µM.

For the molecule `CC(C)c1cc(C(C)C)c(S(=O)(=O)N[C@@H](Cc2cccc(C(=N)N)c2)C(=O)N2CCCN(C(=O)C3CCN(C(=N)N)CC3)CC2)c(C(C)C)c1`, the Ki worked out at 0.05 µM in assay [1]; 0.33 µM on Plasminogen; 4.1 µM on Coagulation factor X; 4.6 µM in assay [2]; 2.5 µM on Prothrombin.

On to `N=C(N)c1cccc(C[C@H](NS(=O)(=O)c2ccc(-c3ccccc3)cc2)C(=O)N2CCN(C(=O)C3CCN(C(=N)N)CC3)CC2)c1`, for which the Ki at Plasminogen came to 1.4 µM; at Coagulation factor X, 2.8 µM; in assay [2], 12 µM; on Prothrombin, 1.3 µM.

Take `N=C(N)c1cccc(C[C@H](NS(=O)(=O)c2cccc(NC(=O)CCN)c2)C(=O)N2CCC(CCN=C(N)N)CC2)c1`: the Ki in assay [1] came to 0.0018 µM; on Plasminogen, 5 µM; at Coagulation factor X it was 9.5 µM; in assay [2], 1.7 µM; on Prothrombin, 6 µM.

Consider `N=C(N)c1cccc(C[C@H](NS(=O)(=O)c2ccc(C3CCCCC3)cc2)C(=O)N2CCNCC2)c1`, for which the inhibitory constant (Ki) on Plasminogen worked out at 2.8 µM; at Coagulation factor X, 1.1 µM; in assay [2] it was 6.6 µM; on Prothrombin, 0.17 µM.

As to `N=C(N)c1cccc(C[C@H](NS(=O)(=O)c2cccc(NC(=O)CCCN)c2)C(=O)N2CCC(CCN)CC2)c1`, the Ki was 2.5 µM on Plasminogen, 23 µM at Coagulation factor X, 8 µM in assay [2] and 21 µM on Prothrombin.

Turning to `N=C(N)c1cccc(C[C@H](NS(=O)(=O)c2ccc3ccccc3c2)C(=O)N2CCC(C3CCNCC3)CC2)c1`, the Ki on Plasminogen came to 0.21 µM; on Coagulation factor X it was 24 µM; in assay [2], 2.2 µM; on Prothrombin, 12 µM.

Turning to `CC(C)c1cc(C(C)C)c(S(=O)(=O)N[C@@H](Cc2cccc(C(=N)N)c2)C(=O)N2CCCN(C(=O)C3CCNCC3)CC2)c(C(C)C)c1`, the Ki on Plasminogen stood at 0.26 µM; on Coagulation factor X, 5.8 µM; in assay [2], 2.5 µM; on Prothrombin it was 5 µM.

For the molecule `N=C(N)NCCC(=O)N1CCN(C(=O)[C@H](Cc2cccc(C(=N)N)c2)NS(=O)(=O)c2ccc3cc4ccccc4cc3c2)CC1`, the Ki on Plasminogen was 3.2 µM; at Coagulation factor X it was 4.6 µM; in assay [2], 6.1 µM; at Prothrombin, 0.46 µM.

Turning to `CCC(=O)N1CCN(C(=O)[C@H](Cc2cccc(C(=N)N)c2)NS(=O)(=O)c2ccc3c(c2)C(=O)c2ccccc2C3=O)CC1`, the Ki is 6 µM at Plasminogen, 1.3 µM at Coagulation factor X, 31 µM in assay [2] and 0.054 µM at Prothrombin.

Consider `N=C(N)c1cccc(C[C@H](NS(=O)(=O)c2ccc3ccccc3c2)C(=O)N2CCC(C3CCN(C(=N)N)CC3)CC2)c1`, for which the Ki on Plasminogen was found to be 1.4 µM; at Coagulation factor X it was 25 µM; in assay [2], 1.3 µM; on Prothrombin it was 1.8 µM.

On to `N=C(N)c1cccc(C[C@H](NS(=O)(=O)c2ccc3ccccc3c2)C(=O)N2CCC(CCN)CC2)c1`, for which the inhibition constant Ki on Plasminogen is 1.4 µM; on Coagulation factor X, 76 µM; in assay [2] it was 2.3 µM; on Prothrombin it was 0.21 µM.

Take `CC(C)c1cc(C(C)C)c(S(=O)(=O)NC(Cc2cccc(C(=N)N)c2)C(=O)N2CCN(C(=O)CCN=C(N)N)CC2)c(C(C)C)c1` (configuration not stated): in assay [1], the Ki turned out to be 0.082 µM.
